# Source: publication PMC7253423, “Quassinoid analogs with enhanced efficacy for treatment of hematologic malignancies target the PI3Kγ isoform” (Communications Biology, 2020)
# pIC50: −log10 of the molar value. Where “and” joins values, the source holds several entries; their conditions need not be identical. Equal values may be shown once.
# How the values were obtained:
# Raji cells = assay: Cell viability assay (CellTiter-Glo luminescence); assay type: cell-based, human; conditions: Homo sapiens, analogs, 72 h, Fig. 5c, read-out: IC50
# Method: (§1) 5000 cells as indicated were cultured in 96-well plate with 100 μl of media. […] After treatment, the cells were incubated with 100 μl buffer for 10 min at room temperature following the instructions of CellTiter-Glo kit (Promega, Madison, WI). Luminescence was detected using a multi-mode reader Cytation 5 (BioTek, Winooski, VT). […] Two independent experiments done in duplicates were performed.
# PBMC = assay: Cytotoxicity, cell viability assay in normal cells; assay type: cell-based, human; conditions: Fig 5c
# From the text: Human peripheral blood mononuclear cells (PBMCs), normal T-cells and B-cells were provided by the University of Pennsylvania Human Immunology Core (HIC), and Patient-derived xenografts (PDXs) were obtained from Fox Chase Cancer Center (FCCC). These samples were from different unidentified and healthy donors with written, informed consent. All the procedures were approved by the Institutional Review Board (IRB) and conducted according to the declarations of Helsinki protocols.
# as §1
# [1] = tested on: hematologic malignancies derived cell lines; assay: Cell viability assay, panel of hematologic malignancy derived cell lines; assay type: cell-based, human; conditions: 100 nM, 72 h, lymphoma, leukemia and multiple myeloma cell lines (13 cell lines for analogs)
# Method: 5000 cells as indicated were cultured in 96-well plate with 100 μl of media. On the next day, Brusatol or associated analogs were added once to the cells without media change. After treatment, the cells were incubated with 100 μl buffer for 10 min at room temperature following the instructions of CellTiter-Glo kit (Promega, Madison, WI). Luminescence was detected using a multi-mode reader Cytation 5 (BioTek, Winooski, VT). […] Two independent experiments done in duplicates were performed.
# MOLM14 xenografts = assay: In vivo tumorigenic assay using xenografts, tumor size; set-up: species or system NOD/SCID mice; conditions: MOLM14 xenograft
# Method: (§2) Six-week-old male NOD.CB17-Prkdc^scid/J (NOD/SCID) mice (Jackson Labs, Bar Harbor, ME, USA) were used as the human-in-mouse xeno-transplantation model. MOLM14 cells (1 × 10^7 cells) were injected into the subcutaneous space on the left flank of the mice. […] Body weight and tumor size were monitored before every injection. After treatment for 2 weeks, the mice were euthanized by CO2 inhalation and the tumors were carefully excised. The tumor volume (mm^3) was measured and calculated using the formula (a × b × b)/2 (a, the largest diameter of two measurements; b, the smallest diameter of two measurements).
# [2] = Body weight of xenograft mice; assay type: in vivo, NOD/SCID mice; conditions: individual mice, Fig S3i, in g (unit assumed)
# Method: as §2
structure (smiles),measurement,setting,value
COC(=O)C12OCC34C(CC5C(C)=C(OC(=O)C(N)Cc6ccccc6)C(=O)CC5(C)C3C(O)C1O)OC(=O)C(OC(=O)C=C(C)C)C24 (stereo not drawn) [#14],pIC50,Raji cells,7.41
same,"Cell viability, raw luminescence reading",PBMC; Con. 0.01 μM,16702 and 18584
same,"Cell viability, raw luminescence reading",PBMC; Con. 0.039 μM,14138 and 13170
same,"Cell viability, raw luminescence reading",PBMC; Con. 0.156 μM,9796 and 9988
same,"Cell viability, raw luminescence reading",PBMC; Con. 0.625 μM,7942 and 8235
same,"Cell viability, raw luminescence reading",PBMC; Con. 10 μM,10547 and 15443
same,inhibition of cell viability in panel of cell lines,[1],significantly inhibit
same,"tumor size (Fig 5d&5e), individual mice",MOLM14 xenografts; 0d,146.154 and 92.4556 and 61.5288 and 118.617 and 111.079 and 97.6091
same,"tumor size (Fig 5d&5e), individual mice",MOLM14 xenografts; 2d,155.286 and 83.3599 and 78.5598 and 123.615 and 132.099 and 148.619
same,"tumor size (Fig 5d&5e), individual mice",MOLM14 xenografts; 4d,205.624 and 120.823 and 83.03 and 205.911 and 121.618 and 141.386
same,"tumor size (Fig 5d&5e), individual mice",MOLM14 xenografts; 6d,215.948 and 214.154 and 405.903 and 288.793 and 65.298 and 81.0923
same,"tumor size (Fig 5d&5e), individual mice",MOLM14 xenografts; 8d,654.828 and 372.84 and 268.332 and 549.466 and 314.977 and 266.348
same,"tumor size (Fig 5d&5e), individual mice",MOLM14 xenografts; 10d,1094.41 and 794.074 and 511.007 and 817.839 and 517.393 and 583.109
same,"tumor size (Fig 5d&5e), individual mice",MOLM14 xenografts; 12d,1848.1 and 1147.5 and 978.929 and 1531.82 and 970.42 and 1008.11
same,Body weight,[2]; 0d,25.66 and 26.32 and 25.88 and 25.26 and 25.69
same,Body weight,[2]; 2d,26.84 and 26.83 and 25.73
same,Body weight,[2]; 4d,30.22 and 27.96
same,Body weight,[2]; 6d,31.1 and 27.6
same,Body weight,[2]; 8d,31.54 and 29.03 and 29.06 and 28.16 and 27.82 and 27.45
same,Body weight,[2]; 10d,32.14 and 29.64 and 29.88 and 28.65 and 28.04
same,Body weight,[2]; 12d,33.33 and 31.09 and 31.73 and 30.06 and 30.08
